Source: PMC5218480 (PLoS ONE, 2017)

Tested on: MV-4-11 cells
Experiment: Gene expression microarray analysis (Affymetrix PrimeView) and GSEA
Type: cell-based, human
Design: RFU PODN (11730768_x_at) / Fold change /veh PODN (11730768_x_at) / RFU LINC00158 (11744669_a_at) / Fold change /veh LINC00158 (11744669_a_at) / RFU DUSP10 (11751237_a_at) / Fold change /veh DUSP10 (11751237_a_at) / RFU ID3 (11757404_x_at) / Fold change /veh ID3 (11757404_x_at) / RFU PLEKHG5 (11737974_s_at) / Fold change /veh PLEKHG5 (11737974_s_at) / RFU LRRC4B (11730491_at) / Fold change /veh LRRC4B (11730491_at) / RFU GIMAP4 (11747438_a_at) / Fold change /veh GIMAP4 (11747438_a_at) / RFU KRT8 (11758183_x_at) / Fold change /veh KRT8 (11758183_x_at) / RFU CNN1 (11734310_a_at) / Fold change /veh CNN1 (11734310_a_at) / RFU VPS37D (11726825_at) / Fold change /veh VPS37D (11726825_at) / RFU C10orf10 (11716522_x_at) / Fold change /veh C10orf10 (11716522_x_at) / RFU KIR2DL2 /// KIR2DL4 /// KIR2DL5A /// KIR2DL5B /// KIR2DS1 /// KIR2DS2 /// KIR2DS3 /// KIR2DS4 /// KIR3DL3 /// KIR3DL3 /// KIR3DS1 (11738374_at) / Fold change /veh KIR2DL2 /// KIR2DL4 /// KIR2DL5A /// KIR2DL5B /// KIR2DS1 /// KIR2DS2 /// KIR2DS3 /// KIR2DS4 /// KIR3DL3 /// KIR3DL3 /// KIR3DS1 (11738374_at) / RFU C1QL1 (11718748_at) / Fold change /veh C1QL1 (11718748_at) / RFU TMPRSS4 (11747572_a_at) / Fold change /veh TMPRSS4 (11747572_a_at) / RFU HAMP (11756126_x_at) / Fold change /veh HAMP (11756126_x_at) / RFU RNFT2 (11725882_a_at) / Fold change /veh RNFT2 (11725882_a_at) / RFU NR4A2 (11747474_a_at) / Fold change /veh NR4A2 (11747474_a_at) / RFU ABCC12 (11746883_a_at) / Fold change /veh ABCC12 (11746883_a_at) / RFU TMEM136 (11760407_x_at) / Fold change /veh TMEM136 (11760407_x_at) / RFU CLDN22 /// WWC2 (11732394_at) / Fold change /veh CLDN22 /// WWC2 (11732394_at) / RFU HLA-DPB1 (11760878_x_at) / Fold change /veh HLA-DPB1 (11760878_x_at) / RFU SPINT1 (11716480_a_at) / Fold change /veh SPINT1 (11716480_a_at) / RFU GAP43 (11754022_s_at) / Fold change /veh GAP43 (11754022_s_at) / RFU A4GNT (11735810_at) / Fold change /veh A4GNT (11735810_at) / RFU PRB3 (11715151_x_at) / Fold change /veh PRB3 (11715151_x_at) / RFU TUBB4B (11761932_at) / Fold change /veh TUBB4B (11761932_at) / RFU CAPN14 (11732068_a_at) / Fold change /veh CAPN14 (11732068_a_at) / RFU TMCC2 (11721928_a_at) / Fold change /veh TMCC2 (11721928_a_at) / RFU IRGQ (11745062_a_at) / Fold change /veh IRGQ (11745062_a_at) / RFU FAM174B (11720279_a_at) / Fold change /veh FAM174B (11720279_a_at) / RFU TMPRSS4 (11748680_a_at) / Fold change /veh TMPRSS4 (11748680_a_at) / RFU FAM212B (11763350_a_at) / Fold change /veh FAM212B (11763350_a_at) / RFU PLEKHG5 (11743358_a_at) / Fold change /veh PLEKHG5 (11743358_a_at) / RFU ZSCAN30 (11745921_a_at) / Fold change /veh ZSCAN30 (11745921_a_at) / RFU CMKLR1 (11741424_a_at) / Fold change /veh CMKLR1 (11741424_a_at) / RFU LOC101060620 /// MAPK8IP1 (11723275_at) / Fold change /veh LOC101060620 /// MAPK8IP1 (11723275_at) / RFU SPTSSB (11747773_x_at) / Fold change /veh SPTSSB (11747773_x_at) / RFU PRSS12 (11739890_at) / Fold change /veh PRSS12 (11739890_at) / RFU BIN1 (11741810_x_at) / Fold change /veh BIN1 (11741810_x_at) / RFU WNT11 (11732464_a_at) / Fold change /veh WNT11 (11732464_a_at) / RFU C10orf10 (11716521_a_at) / Fold change /veh C10orf10 (11716521_a_at) / RFU C5orf56 (11738089_at) / Fold change /veh C5orf56 (11738089_at) / RFU CYB561 (11721691_x_at) / Fold change /veh CYB561 (11721691_x_at) / RFU ANKRD19P (11752326_a_at) / Fold change /veh ANKRD19P (11752326_a_at) / RFU OR2T12 /// OR2T33 /// OR2T8 (11738714_s_at) / Fold change /veh OR2T12 /// OR2T33 /// OR2T8 (11738714_s_at) / RFU VCAN (11748164_a_at) / Fold change /veh VCAN (11748164_a_at) / RFU JSRP1 (11732532_at) / Fold change /veh JSRP1 (11732532_at) / RFU KRTAP10-11 (11738290_x_at) / Fold change /veh KRTAP10-11 (11738290_x_at) / RFU MYO3A (11730013_a_at) / Fold change /veh MYO3A (11730013_a_at) / RFU EBF3 (11725865_a_at) / Fold change /veh EBF3 (11725865_a_at) / RFU CAMK2N1 (11719241_x_at) / Fold change /veh CAMK2N1 (11719241_x_at) / RFU C5orf56 (11738088_a_at) / Fold change /veh C5orf56 (11738088_a_at) / RFU OLFML3 (11715873_a_at) / Fold change /veh OLFML3 (11715873_a_at) / RFU LOC100653217 /// NTM (11731650_a_at) / Fold change /veh LOC100653217 /// NTM (11731650_a_at) / RFU MAPK11 (11762145_a_at) / Fold change /veh MAPK11 (11762145_a_at) / RFU FIZ1 (11724087_x_at) / Fold change /veh FIZ1 (11724087_x_at) / RFU OASL (11726364_x_at) / Fold change /veh OASL (11726364_x_at) / RFU SOX15 (11748057_x_at) / Fold change /veh SOX15 (11748057_x_at) / RFU CD79A (11719716_a_at) / Fold change /veh CD79A (11719716_a_at) / RFU HIST1H1D (11736915_at) / Fold change /veh HIST1H1D (11736915_at) / RFU CASKIN2 (11723855_a_at) / Fold change /veh CASKIN2 (11723855_a_at) / RFU LOC730098 (11760151_x_at) / Fold change /veh LOC730098 (11760151_x_at) / RFU OR4N2 (11742367_at) / Fold change /veh OR4N2 (11742367_at) / RFU PRRT2 (11749266_a_at) / Fold change /veh PRRT2 (11749266_a_at) / RFU SNX32 (11753110_a_at) / Fold change /veh SNX32 (11753110_a_at) / RFU CDHR5 (11726645_a_at) / Fold change /veh CDHR5 (11726645_a_at) / RFU RCAN1 (11760418_a_at) / Fold change /veh RCAN1 (11760418_a_at) / RFU FAM167A (11723789_a_at) / Fold change /veh FAM167A (11723789_a_at) / RFU FAM26E (11764081_at) / Fold change /veh FAM26E (11764081_at) / RFU ISYNA1 (11749810_s_at) / Fold change /veh ISYNA1 (11749810_s_at) / RFU ACY1 (11761880_at) / Fold change /veh ACY1 (11761880_at) / RFU 11764098_at / Fold change /veh 11764098_at / RFU SAMD14 (11745864_x_at) / Fold change /veh SAMD14 (11745864_x_at) / RFU NPB (11741838_a_at) / Fold change /veh NPB (11741838_a_at) / RFU TMPRSS6 (11731388_a_at) / Fold change /veh TMPRSS6 (11731388_a_at) / RFU KRTAP10-2 (11738614_at) / Fold change /veh KRTAP10-2 (11738614_at) / RFU ARHGAP8 /// PRR5-ARHGAP8 (11727945_x_at) / Fold change /veh ARHGAP8 /// PRR5-ARHGAP8 (11727945_x_at) / RFU KRTAP5-7 /// NADSYN1 (11734609_at) / Fold change /veh KRTAP5-7 /// NADSYN1 (11734609_at) / RFU RASL12 (11751679_a_at) / Fold change /veh RASL12 (11751679_a_at) / RFU CDKN2B (11736163_a_at) / Fold change /veh CDKN2B (11736163_a_at) / RFU PRF1 (11729649_at) / Fold change /veh PRF1 (11729649_at) / RFU, ZNF638 /// ZNF638-IT1 / Fold change vs veh, ZNF638 /// ZNF638-IT1 / RFU, PANK3 / Fold change vs veh, PANK3 / RFU, SH3YL1 / Fold change vs veh, SH3YL1 / RFU, ZEB2 / Fold change vs veh, ZEB2 / RFU, NRIP1 / Fold change vs veh, NRIP1 / RFU, PTTG1IP / Fold change vs veh, PTTG1IP / RFU, CAPN2 / Fold change vs veh, CAPN2 / RFU, MED14 / Fold change vs veh, MED14 / RFU, SNORA58 / Fold change vs veh, SNORA58 / RFU, C1orf63 / Fold change vs veh, C1orf63 / RFU, LRRFIP1 / Fold change vs veh, LRRFIP1 / RFU, NDUFAF7 / Fold change vs veh, NDUFAF7 / RFU, SLC12A2 / Fold change vs veh, SLC12A2 / RFU, IBTK / Fold change vs veh, IBTK / RFU, ESF1 / Fold change vs veh, ESF1 / Fold change vs veh, TMEM50B / RFU, TAOK1 / Fold change vs veh, TAOK1 / RFU, ACBD3 / Fold change vs veh, ACBD3 / RFU, TMA16 / Fold change vs veh, TMA16 / RFU, RWDD3 / Fold change vs veh, RWDD3 / RFU, BCAT1 / Fold change vs veh, BCAT1 / RFU, EDEM3 / Fold change vs veh, EDEM3 / RFU, TMEM33 / Fold change vs veh, TMEM33 / RFU, WDR75 / Fold change vs veh, WDR75 / RFU, AHCTF1 / Fold change vs veh, AHCTF1 / RFU, TFRC / Fold change vs veh, TFRC / RFU, ZDHHC17 / Fold change vs veh, ZDHHC17 / RFU, NOM1 / Fold change vs veh, NOM1 / RFU, ARL8B / Fold change vs veh, ARL8B / RFU, ZBTB11 / Fold change vs veh, ZBTB11 / RFU, TAMM41 / Fold change vs veh, TAMM41 / RFU, KIAA1704 /// LOC100996395 / Fold change vs veh, KIAA1704 /// LOC100996395 / RFU, ING1 / Fold change vs veh, ING1 / RFU, TRMT61B / Fold change vs veh, TRMT61B / RFU, FUBP3 / Fold change vs veh, FUBP3 / RFU, TP53 / Fold change vs veh, TP53 / RFU, TNKS2 / Fold change vs veh, TNKS2 / RFU, ZFP14 / Fold change vs veh, ZFP14 / RFU, ACTR2 / Fold change vs veh, ACTR2 / RFU, PPP3R1 / Fold change vs veh, PPP3R1 / RFU, PIK3R1 / Fold change vs veh, PIK3R1 / RFU, HNRNPA1 / Fold change vs veh, HNRNPA1 / RFU, RNF170 / Fold change vs veh, RNF170 / RFU, ZNF28 / Fold change vs veh, ZNF28 / RFU, RNGTT / Fold change vs veh, RNGTT / RFU, OGT / Fold change vs veh, OGT / RFU, BRD1 / Fold change vs veh, BRD1 / RFU, MARS / Fold change vs veh, MARS / RFU, ZNF655 / Fold change vs veh, ZNF655 / RFU, FAHD1 / Fold change vs veh, FAHD1 / RFU, BDP1 / Fold change vs veh, BDP1 / RFU, LRRCC1 / Fold change vs veh, LRRCC1 / RFU, ARID1A / Fold change vs veh, ARID1A / RFU, ZNF146 / Fold change vs veh, ZNF146 / RFU, ZNF330 / Fold change vs veh, ZNF330 / RFU, GPN3 / Fold change vs veh, GPN3 / RFU, C9orf123 / Fold change vs veh, C9orf123 / RFU, N4BP2L2 / Fold change vs veh, N4BP2L2 / RFU, ARFIP1 / Fold change vs veh, ARFIP1 / RFU, FAM179B / Fold change vs veh, FAM179B / RFU, BCL10 / Fold change vs veh, BCL10 / RFU, UHRF1BP1L / Fold change vs veh, UHRF1BP1L / RFU, BET1 / Fold change vs veh, BET1 / RFU, CNOT2 / Fold change vs veh, CNOT2 / RFU, ZNF268 / Fold change vs veh, ZNF268 / Fold change vs veh, ZNF507 / RFU, DGCR2 / Fold change vs veh, DGCR2 / RFU, WDSUB1 / Fold change vs veh, WDSUB1 / Fold change vs veh, HSP90B1 /// MIR3652 / RFU, ADSS / Fold change vs veh, ADSS / RFU, GK / Fold change vs veh, GK / RFU, ZNF148 / Fold change vs veh, ZNF148 / RFU, TAF9 / Fold change vs veh, TAF9 / RFU, SLC1A5 / Fold change vs veh, SLC1A5 / RFU, SLMO2 / Fold change vs veh, SLMO2 / RFU, ABCC4 / Fold change vs veh, ABCC4 / RFU, LOC101060439 /// RAP1B / Fold change vs veh, LOC101060439 /// RAP1B / RFU, RFX7 / Fold change vs veh, RFX7 / RFU, GTPBP10 / Fold change vs veh, GTPBP10 / RFU, CNEP1R1 / Fold change vs veh, CNEP1R1 / RFU, BIVM-ERCC5 /// ERCC5 / Fold change vs veh, BIVM-ERCC5 /// ERCC5 / RFU, ILF3 / Fold change vs veh, ILF3 / RFU 11762660_at / Fold change /veh 11762660_at / RFU VCAN (11757783_s_at) / Fold change /veh VCAN (11757783_s_at) / RFU DDX43 (11728927_at) / Fold change /veh DDX43 (11728927_at) / RFU KRT8 (11758188_x_at) / Fold change /veh KRT8 (11758188_x_at) / RFU NKD1 (11759106_at) / Fold change /veh NKD1 (11759106_at) / RFU SRD5A1 (11742802_a_at) / Fold change /veh SRD5A1 (11742802_a_at) / RFU TPSAB1 /// TPSB2 (11721975_s_at) / Fold change /veh TPSAB1 /// TPSB2 (11721975_s_at) / RFU GSTM3 (11746129_a_at) / Fold change /veh GSTM3 (11746129_a_at) / RFU IL23R (11737362_x_at) / Fold change /veh IL23R (11737362_x_at) / RFU TMEM51 (11727254_a_at) / Fold change /veh TMEM51 (11727254_a_at) / RFU PIWIL2 (11732686_x_at) / Fold change /veh PIWIL2 (11732686_x_at) / RFU ORM1 (11744905_x_at) / Fold change /veh ORM1 (11744905_x_at) / RFU CCDC152 (11743942_at) / Fold change /veh CCDC152 (11743942_at) / RFU ECM1 (11717891_a_at) / Fold change /veh ECM1 (11717891_a_at) / RFU IL23R (11748794_a_at) / Fold change /veh IL23R (11748794_a_at) / RFU TNFAIP8L3 (11732012_x_at) / Fold change /veh TNFAIP8L3 (11732012_x_at) / RFU MBOAT4 (11741988_at) / Fold change /veh MBOAT4 (11741988_at) / RFU 11764193_at / Fold change /veh 11764193_at / RFU TMEM53 (11763286_at) / Fold change /veh TMEM53 (11763286_at) / RFU MAGEB2 (11727129_at) / Fold change /veh MAGEB2 (11727129_at) / RFU TMEM200A (11744735_a_at) / Fold change /veh TMEM200A (11744735_a_at) / RFU CCDC152 (11751479_a_at) / Fold change /veh CCDC152 (11751479_a_at) / RFU FAM211A (11726209_a_at) / Fold change /veh FAM211A (11726209_a_at) / RFU RGS16 (11746705_a_at) / Fold change /veh RGS16 (11746705_a_at) / RFU VCAN (11755009_s_at) / Fold change /veh VCAN (11755009_s_at) / RFU RHOB (11743442_s_at) / Fold change /veh RHOB (11743442_s_at) / RFU RGS16 (11720943_a_at) / Fold change /veh RGS16 (11720943_a_at) / RFU RGS16 (11720944_at) / Fold change /veh RGS16 (11720944_at) / RFU, VPS4B / Fold change vs veh, VPS4B / RFU, CREB1 / Fold change vs veh, CREB1 / RFU, DNAJC13 / Fold change vs veh, DNAJC13 / RFU, GNAQ / Fold change vs veh, GNAQ / RFU, CDK5R1 / Fold change vs veh, CDK5R1 / RFU, ZRANB3 / Fold change vs veh, ZRANB3 / RFU, CUL4A / Fold change vs veh, CUL4A / RFU, CCNY / Fold change vs veh, CCNY / RFU, UFL1 / Fold change vs veh, UFL1 / RFU, COG3 / Fold change vs veh, COG3 / RFU, DIAPH2 / Fold change vs veh, DIAPH2 / RFU, SKA2 / Fold change vs veh, SKA2 / RFU, AFF3 / Fold change vs veh, AFF3 / RFU, LMF1 / Fold change vs veh, LMF1 / RFU, IPO11 / Fold change vs veh, IPO11 / RFU, DFFB / Fold change vs veh, DFFB / RFU, FOXP1 / Fold change vs veh, FOXP1 / RFU, CARD8 / Fold change vs veh, CARD8 / RFU, STRN3 / Fold change vs veh, STRN3 / RFU, ADK / Fold change vs veh, ADK / RFU, RASSF2 / Fold change vs veh, RASSF2 / RFU, WIPF1 / Fold change vs veh, WIPF1 / RFU, LARP1B / Fold change vs veh, LARP1B / RFU, RASA1 / Fold change vs veh, RASA1 / RFU, RB1 / Fold change vs veh, RB1 / RFU, PPFIA1 / Fold change vs veh, PPFIA1 / RFU, MAT2A / Fold change vs veh, MAT2A / RFU, CCT5 / Fold change vs veh, CCT5 / RFU, WDR92 / Fold change vs veh, WDR92 / RFU, CUX1 / Fold change vs veh, CUX1 / RFU, TTC7A / Fold change vs veh, TTC7A / RFU, TMEM135 / Fold change vs veh, TMEM135 / RFU, DEPTOR / Fold change vs veh, DEPTOR / RFU, CPM / Fold change vs veh, CPM / RFU, DNAJB6 / Fold change vs veh, DNAJB6 / RFU, CACNA2D3 / Fold change vs veh, CACNA2D3 / RFU, DTX4 / Fold change vs veh, DTX4 / RFU, TFCP2 / Fold change vs veh, TFCP2 / RFU, GMCL1 /// GMCL1P1 / Fold change vs veh, GMCL1 /// GMCL1P1 / RFU, AEBP2 / Fold change vs veh, AEBP2 / RFU, SNHG1 /// SNORD22 /// SNORD25 /// SNORD26 /// SNORD27 /// SNORD28 /// SNORD29 /// SNORD31 / Fold change vs veh, SNHG1 /// SNORD22 /// SNORD25 /// SNORD26 /// SNORD27 /// SNORD28 /// SNORD29 /// SNORD31 / Fold change (Aza/veh), C12orf56 (ProbeSet 11735607_a_at) / Fold change (ACY-1035/veh), C12orf56 (ProbeSet 11735607_a_at) / Fold change (Aza/veh), FGFR1OP (ProbeSet 11751329_s_at) / Fold change (ACY-1035/veh), FGFR1OP (ProbeSet 11751329_s_at) / Fold change (Aza/veh), VPS36 (ProbeSet 11739960_a_at) / Fold change (ACY-1035/veh), VPS36 (ProbeSet 11739960_a_at) / RFU SYPL1 (11715823_x_at) / Fold change /veh SYPL1 (11715823_x_at) / RFU IGFBP7 (11715501_s_at) / Fold change /veh IGFBP7 (11715501_s_at) / RFU REEP3 (11722064_at) / Fold change /veh REEP3 (11722064_at) / RFU IGLL1 (11728026_x_at) / Fold change /veh IGLL1 (11728026_x_at): dose or concentration left out as unconfirmed
Details: MV-4-11 cells, 48 hours

Nc1ccc(-c2cccs2)cc1NC(=O)c1ccc2c(c1)cc(C1CC1)n2CCN1CCOCC1 [ACY-1035]
Fold change /veh OASL (11726364_x_at): 1.03
